In patent US11000033B2, “Ketone or oxime compound, and herbicide” (NISSAN CHEMICAL CORPORATION, priority 2014, dated 2021):

Key:
Type in all cases: in vivo
[1] = system: rice; assay: Test Example 4: effect on crop by soil treatment (symbol b); conditions: application herbicide amount 320 g/ha
How it was run: (§1)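 Grown at 25° C. to 30° C. in a greenhouse, the crops came from seed sown spot-wise in sterilized diluvial soil under roughly 1.5 cm of covering soil.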

[2] = system: Alopecurus myosuroides; assay: Test Example 4: herbicidal effect by soil treatment (symbol J); conditions: application herbicide amount 320 g/ha
How it was run: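 Seeds were sown in sterilized diluvial soil, covered with about 1.5 cm of soil, and the soil surface was sprayed with a water-diluted emulsion of the compound at a predetermined rate. Plants grew in a greenhouse at 25° C. to 30° C.; effects were scored visually 3 weeks after application.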

[3] = system: Alopecurus myosuroides; assay: Test Example 5: herbicidal effect by foliage application, plastic box (symbol J); conditions: 320 g/ha, 3 weeks after application
How it was run: (§2)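 Sowing in sterilized diluvial soil, 14 days' greenhouse growth at 25° C. to 30° C., then uniform small-sprayer foliar application of aqueous emulsion dilution; plants scored three weeks afterwards.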

[4] = system: Apera spica-venti; assay: Test Example 5: herbicidal effect by foliage application, plastic box (symbol L); conditions: 320 g/ha, 3 weeks after application
How it was run: as §2

[5] = system: Echinochloa crus-galli var. crus-galli; assay: Test Example 5: herbicidal effect by foliage application, plastic box (symbol H); conditions: 320 g/ha, 3 weeks after application
How it was run: as §2

[6] = system: Scirpus juncoides; assay: Test Example 1: herbicidal activity, application before weed generation in submerged conditions (symbol B); conditions: application herbicide amount 320 g/ha
How it was run: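 Weeds are sown into submerged alluvial soil alongside transplanted 2.5-leaf rice, and the compound, as an emulsion diluted to a set rate, is applied onto the water before emergence. Rating on the 0–5 herbicidal-ratio scale follows 3 weeks of greenhouse growth at 25–30 °C.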

[7] = system: Digitaria ciliaris; assay: Test Example 5: herbicidal effect by foliage application, plastic box (symbol F); conditions: 320 g/ha, 3 weeks after application
How it was run: as §2

[8] = system: directly sowed rice plant; assay: Test Example 3: effect on crop by foliage application, Wagner pot (symbol b); conditions: application herbicide amount 320 g/ha
How it was run: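 Steps: fill a 1/10000-are Wagner pot with alluvial soil; add water and mix to submerge at 0.1–0.5 cm depth; sow rice plus Echinochloa crus-galli var. crus-galli, Leptochloa chinensis and Cyperus difformis; grow in a 25–30 °C greenhouse.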

[9] = system: Galium spurium; assay: Test Example 5: herbicidal effect by foliage application, plastic box (symbol Q); conditions: 320 g/ha, 3 weeks after application
How it was run: as §2

[10] = system: Chenopodium album; assay: Test Example 5: herbicidal effect by foliage application, plastic box (symbol O); conditions: 320 g/ha, 3 weeks after application
How it was run: as §2

[11] = system: soybean; assay: Test Example 4: effect on crop by soil treatment (symbol d); conditions: application herbicide amount 320 g/ha
How it was run: as §1

[12] = system: Leptochloa chinensis; assay: Test Example 3: herbicidal effect by foliage application, Wagner pot (symbol D); conditions: application herbicide amount 320 g/ha
How it was run: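 Foliar spray of water-diluted emulsion formulation at a predetermined herbicide amount onto 14-day-old plants in flooded alluvial soil (water depth 0.1–0.5 cm), greenhouse 25–30 °C; rice sown alongside. Scored 3 wk post-application on set criteria.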

[13] = system: rapeseed; assay: Test Example 5: effect on crop by foliage application, plastic box (symbol g); conditions: 320 g/ha, 3 weeks after application
How it was run: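 Sterilized diluvial soil, plastic box (21 × 13 × 7 cm); spot sowing, ~1.5 cm soil cover; greenhouse 25–30° C.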

[14] = system: beet; assay: Test Example 4: effect on crop by soil treatment (symbol f); conditions: application herbicide amount 320 g/ha
How it was run: as §1

For `CCc1cc(C#C[Si](C)(C)C)cc(C)c1C1=C(O)CC(CC(C)=NOC)C1=O` (mixture of isomers) [6-008], the “b: directly sowed rice plant, effect on crop grade” value (shortened to “b: directly sowed rice plant”) [1] was 5 (Herbicidal ratio of 90% or more (almost completely withered)), the “J: Alopecurus myosuroides, herbicidal effect grade” value (“J: Alopecurus myosuroides” for short) [2] was 4 (Herbicidal ratio of 70% or higher and lower than 90%) and the “J: Alopecurus myosuroides” value [3] was 5 (Herbicidal ratio of 90% or more (almost completely withered)). The “L: Apera spica-venti, herbicidal effect grade” value (from here on “L: Apera spica-venti”) [4] was 3 (Herbicidal ratio of 40% or higher and lower than 70%), the “H: Echinochloa crus-galli var. crus-galli, herbicidal effect grade” value [5] was 5 (Herbicidal ratio of 90% or more (almost completely withered)) and the “Herbicidal effect grade, B: Scirpus juncoides” value (“Herbicidal effect grade, B” for short) [6] was 5 (Herbicidal ratio of 90% or more (almost completely withered)). For the same molecule, the “F: Digitaria ciliaris, herbicidal effect grade” value (“F: Digitaria ciliaris” for short) [7] was 0 (Herbicidal ratio of 5% or lower (almost no effect)), the “effect on crop b (directly sowed rice plant), grade 0-5” value (from here on “effect on crop b”) [8] was 5 (Herbicidal ratio of 90% or more (almost completely withered)) and the “Q: Galium spurium, herbicidal effect grade” value (shortened to “Q: Galium spurium”) [9] was 0 (Herbicidal ratio of 5% or lower (almost no effect)). For the same molecule, the “O: Chenopodium album, herbicidal effect grade” value (shortened to “O: Chenopodium album”) [10] was 0 (Herbicidal ratio of 5% or lower (almost no effect)), the “d: soybean, effect on crop grade” value [11] was 0 (Herbicidal ratio of 5% or lower (almost no effect)) and the “herbicidal effect on D (Leptochloa chinensis), grade 0-5” value (from here on “herbicidal effect on D”) [12] was 5 (Herbicidal ratio of 90% or more (almost completely withered)). For the same molecule, the “g: rapeseed, effect on crop grade” value [13] was 0 (Herbicidal ratio of 5% or lower (almost no effect)) and the “f: beet, effect on crop grade” value [14] was 0 (Herbicidal ratio of 5% or lower (almost no effect)).

With `CCc1cc(-n2cc(Cl)cn2)cc(C)c1C1=C(O)CC(CC(C)=NOC)C1=O` (mixture of isomers) [6-005] the “b: directly sowed rice plant” value [1] was 5 (Herbicidal ratio of 90% or more (almost completely withered)), the “J: Alopecurus myosuroides” value [2] was 5 (Herbicidal ratio of 90% or more (almost completely withered)) and the “J: Alopecurus myosuroides” value [3] was 5 (Herbicidal ratio of 90% or more (almost completely withered)). For the same molecule, the “L: Apera spica-venti” value [4] was 5 (Herbicidal ratio of 90% or more (almost completely withered)), the “H: Echinochloa crus-galli var. crus-galli, herbicidal effect grade” value [5] was 5 (Herbicidal ratio of 90% or more (almost completely withered)) and the “Herbicidal effect grade, B” value [6] was 5 (Herbicidal ratio of 90% or more (almost completely withered)). For the same molecule, the “F: Digitaria ciliaris” value [7] was 5 (Herbicidal ratio of 90% or more (almost completely withered)), the “effect on crop b” value [8] was 5 (Herbicidal ratio of 90% or more (almost completely withered)) and the “Q: Galium spurium” value [9] was 3 (Herbicidal ratio of 40% or higher and lower than 70%). For the same molecule, the “O: Chenopodium album” value [10] was 3 (Herbicidal ratio of 40% or higher and lower than 70%), the “d: soybean, effect on crop grade” value [11] was 1 (Herbicidal ratio of 5% or higher and lower than 20%) and the “herbicidal effect on D” value [12] was 5 (Herbicidal ratio of 90% or more (almost completely withered)). The “g: rapeseed, effect on crop grade” value [13] was 0 (Herbicidal ratio of 5% or lower (almost no effect)) and the “f: beet, effect on crop grade” value [14] was 0 (Herbicidal ratio of 5% or lower (almost no effect)).

`CC#Cc1cc(C)c(C2=C(O)CC(CC(C)=NOC)C2=O)c(C)c1` (mixture of isomers) [6-009] was tested, and the “b: directly sowed rice plant” value [1] was 5 (Herbicidal ratio of 90% or more (almost completely withered)), the “J: Alopecurus myosuroides” value [2] was 5 (Herbicidal ratio of 90% or more (almost completely withered)) and the “J: Alopecurus myosuroides” value [3] was 5 (Herbicidal ratio of 90% or more (almost completely withered)). For the same molecule, the “L: Apera spica-venti” value [4] was 5 (Herbicidal ratio of 90% or more (almost completely withered)), the “H: Echinochloa crus-galli var. crus-galli, herbicidal effect grade” value [5] was 5 (Herbicidal ratio of 90% or more (almost completely withered)) and the “Herbicidal effect grade, B” value [6] was 2 (Herbicidal ratio of 20% or higher and lower than 40%). For the same molecule, the “F: Digitaria ciliaris” value [7] was 5 (Herbicidal ratio of 90% or more (almost completely withered)), the “effect on crop b” value [8] was 5 (Herbicidal ratio of 90% or more (almost completely withered)) and the “Q: Galium spurium” value [9] was 0 (Herbicidal ratio of 5% or lower (almost no effect)). The “O: Chenopodium album” value [10] was 2 (Herbicidal ratio of 20% or higher and lower than 40%), the “d: soybean, effect on crop grade” value [11] was 0 (Herbicidal ratio of 5% or lower (almost no effect)) and the “herbicidal effect on D” value [12] was 5 (Herbicidal ratio of 90% or more (almost completely withered)). The “g: rapeseed, effect on crop grade” value [13] was 4 (Herbicidal ratio of 70% or higher and lower than 90%) and the “f: beet, effect on crop grade” value [14] was 2 (Herbicidal ratio of 20% or higher and lower than 40%).

With `COCC(=O)CC1CC(O)=C(c2c(C)cc(C)cc2C)C1=O` (stereo not drawn) [2-007] the “b: directly sowed rice plant” value [1] was 5 (Herbicidal ratio of 90% or more (almost completely withered)), the “J: Alopecurus myosuroides” value [2] was 3 (Herbicidal ratio of 40% or higher and lower than 70%) and the “J: Alopecurus myosuroides” value [3] was 4 (Herbicidal ratio of 70% or higher and lower than 90%). For the same molecule, the “L: Apera spica-venti” value [4] was 3 (Herbicidal ratio of 40% or higher and lower than 70%), the “H: Echinochloa crus-galli var. crus-galli, herbicidal effect grade” value [5] was 1 (Herbicidal ratio of 5% or higher and lower than 20%) and the “Herbicidal effect grade, B” value [6] was 2 (Herbicidal ratio of 20% or higher and lower than 40%). For the same molecule, the “F: Digitaria ciliaris” value [7] was 1 (Herbicidal ratio of 5% or higher and lower than 20%), the “effect on crop b” value [8] was 5 (Herbicidal ratio of 90% or more (almost completely withered)) and the “Q: Galium spurium” value [9] was 0 (Herbicidal ratio of 5% or lower (almost no effect)). The “O: Chenopodium album” value [10] was 0 (Herbicidal ratio of 5% or lower (almost no effect)), the “d: soybean, effect on crop grade” value [11] was 0 (Herbicidal ratio of 5% or lower (almost no effect)) and the “herbicidal effect on D” value [12] was 5 (Herbicidal ratio of 90% or more (almost completely withered)). For the same molecule, the “g: rapeseed, effect on crop grade” value [13] was 1 (Herbicidal ratio of 5% or higher and lower than 20%) and the “f: beet, effect on crop grade” value [14] was 0 (Herbicidal ratio of 5% or lower (almost no effect)).

`CON=C(C)CC1CC(O)=C(c2c(C)cc(C#CC3CC3)cc2C)C1=O` (mixture of isomers) [6-010] was tested, and the “b: directly sowed rice plant” value [1] was 5 (Herbicidal ratio of 90% or more (almost completely withered)), the “J: Alopecurus myosuroides” value [2] was 5 (Herbicidal ratio of 90% or more (almost completely withered)) and the “J: Alopecurus myosuroides” value [3] was 5 (Herbicidal ratio of 90% or more (almost completely withered)). For the same molecule, the “L: Apera spica-venti” value [4] was 5 (Herbicidal ratio of 90% or more (almost completely withered)), the “H: Echinochloa crus-galli var. crus-galli, herbicidal effect grade” value [5] was 5 (Herbicidal ratio of 90% or more (almost completely withered)) and the “Herbicidal effect grade, B” value [6] was 4 (Herbicidal ratio of 70% or higher and lower than 90%). For the same molecule, the “F: Digitaria ciliaris” value [7] was 5 (Herbicidal ratio of 90% or more (almost completely withered)), the “effect on crop b” value [8] was 5 (Herbicidal ratio of 90% or more (almost completely withered)) and the “Q: Galium spurium” value [9] was 0 (Herbicidal ratio of 5% or lower (almost no effect)). The “O: Chenopodium album” value [10] was 3 (Herbicidal ratio of 40% or higher and lower than 70%), the “d: soybean, effect on crop grade” value [11] was 0 (Herbicidal ratio of 5% or lower (almost no effect)) and the “herbicidal effect on D” value [12] was 5 (Herbicidal ratio of 90% or more (almost completely withered)). The “g: rapeseed, effect on crop grade” value [13] was 0 (Herbicidal ratio of 5% or lower (almost no effect)) and the “f: beet, effect on crop grade” value [14] was 0 (Herbicidal ratio of 5% or lower (almost no effect)).

With `CCOC(=O)C(C(=O)c1ccccc1)C1CC(O)=C(c2c(C)cc(C)cc2C)C1=O` (stereo not drawn) [2-008] the “b: directly sowed rice plant” value [1] was 0 (Herbicidal ratio of 5% or lower (almost no effect)), the “J: Alopecurus myosuroides” value [2] was 0 (Herbicidal ratio of 5% or lower (almost no effect)) and the “J: Alopecurus myosuroides” value [3] was 3 (Herbicidal ratio of 40% or higher and lower than 70%). For the same molecule, the “L: Apera spica-venti” value [4] was 0 (Herbicidal ratio of 5% or lower (almost no effect)), the “H: Echinochloa crus-galli var. crus-galli, herbicidal effect grade” value [5] was 3 (Herbicidal ratio of 40% or higher and lower than 70%) and the “Herbicidal effect grade, B” value [6] was 0 (Herbicidal ratio of 5% or lower (almost no effect)). For the same molecule, the “F: Digitaria ciliaris” value [7] was 2 (Herbicidal ratio of 20% or higher and lower than 40%), the “effect on crop b” value [8] was 0 (Herbicidal ratio of 5% or lower (almost no effect)) and the “Q: Galium spurium” value [9] was 0 (Herbicidal ratio of 5% or lower (almost no effect)). For the same molecule, the “O: Chenopodium album” value [10] was 0 (Herbicidal ratio of 5% or lower (almost no effect)), the “d: soybean, effect on crop grade” value [11] was 0 (Herbicidal ratio of 5% or lower (almost no effect)) and the “herbicidal effect on D” value [12] was 0 (Herbicidal ratio of 5% or lower (almost no effect)). For the same molecule, the “g: rapeseed, effect on crop grade” value [13] was 3 (Herbicidal ratio of 40% or higher and lower than 70%) and the “f: beet, effect on crop grade” value [14] was 0 (Herbicidal ratio of 5% or lower (almost no effect)).
